These are literature values, as cited in patent publication US20210127703A1, “FOOD PRODUCT USING AN IMPROVED SUGAR” (priority 2019, published 2021).

Each structure is given as a SMILES string.

For data set [1] the following is noted: after application of a dermal patch.
The conditions of data set [2]: transdermal; higher than for Δ8-THC.
Data set [3] has as its system CYP 2C.
Data set [4] has as its system liver microsomal drug-metabolizing enzymes. The settings on record: in vitro; inhibiting hexobarbital metabolism in humans.
For data set [5] the following is noted: in vivo.
For data set [6] the following is noted: ingestion of 20 mg of THC in a chocolate cookie.

Consider `CCCCCc1cc(O)c2c(c1)OC(C)(C)[C@@H]1CC=C(C)C[C@@H]21` [Δ8-THC], for which, in data set [1], the “duration steady-state plasma concentration maintained” value is listed as “at least 48 h”, the “mean steady-state plasma concentration” value is 4.4 ng/mL and the “time to steady-state plasma concentration” value is not above 1.4 h.

In the case of `C=C(C)[C@@H]1CCC(C)=C[C@H]1c1c(O)cc(CCCCC)cc1O` [CBD, cannabidiol], in data set [2], the “permeability relative to Δ8-THC” value is 10 fold. In addition, the “effect of CBD on pharmacokinetics of THC” value in data set [3] (Hunt et al., except for a slight slowing of metabolism of 11-OH-THC to THC-COOH) was “not affected”. Moreover, the “inhibition of hydroxylation of THC to 11-OH-THC catalyzed by CYP 2C” value in data set [3] (oral THC alone compared to a THC and CBD preparation) was “only partially inhibited”. Besides, in data set [4], the “inhibition of liver microsomal drug-metabolizing enzymes” value is “in vitro inhibitor of liver microsomal drug-metabolizing enzymes”. Also, the “excretion in the feces” value in data set [5] is recorded as “a large proportion of the dose is excreted unchanged in the feces”.

As for `CCCCCc1cc(O)c2c(c1)OC(C)(C)[C@@H]1CCC(C)=C[C@@H]21` [THC], the “time of peak THC concentration following ingestion” value in data set [6] is 1 to 5 h.

Consider `CCCCCc1cc(O)c2c(c1)OC(C)(C)c1ccc(C)cc1-2` [CBN], for which the “permeability relative to Δ8-THC” value in data set [2] was 10 fold.
